Laboratory results published in patent US5296487A, “Quinazoline derivatives and their preparation” (priority 1990, dated 1994).
In brackets after ≈: the same amount, converted by molar mass. Where a name gives a salt, the structure may show the parent alone.

What was measured:
[1] = tested on: reserpine-induced DOPA accumulation; test: Inhibition of reserpine-induced DOPA accumulation; type: in vivo, Male SD rats; conditions: dose 3.2 mg/kg, orally, 2 hours before sacrifice; striatum
Experimental: Test 2 [Inhibition of reserpine-induced DOPA accumulation]
Male SD rats weighing 300-400 g were used in this test. Rats were pretreated with reserpine (1 mg/kg, S.C.) 17-19 hours before sacrifice and then fasted. Test Compound was given orally to the rats 2 hours before sacrifice. [m-Hydroxybenzylhydrazine (100 mg/kg, i.p.) was given 30 minutes before sacrifice.] Each rat was exposed to microwaves using a head-focus microwave applicator for 1.5 seconds. The whole brain was removed and further separated into the striatum.
DOPA was determined as follows; the striatum was homogenized in 9 volumes of 0.1N perchloric acid solution (0.4% EDTA·2Na). The homogenate was centrifuged at 10,000 rpm for 1 minutes. The supernatant was applied to high performance liquid chromatography.

[2] = Hypotensive effect on spontaneous hypertensive rats; type: in vivo, male spontaneous hypertensive rats; conditions: dose 0.32 mg/kg, orally
Experimental: Test 3 [Hypotensive effect on spontaneous hypertensive rats] 15 to 25-Week-old male spontaneous hypertensive rats with mean arterial blood pressure of about 160-200 mmHg, weighing 300-350 g, were used. The animals were cannulated in the left femoral artery and the mean blood pressure and heart rate were measured with a pressure-transducer. The animals were deprived of food for about 18 hours before oral dosing. The Test Compound was suspended in 0.5% methylcellulose, and given orally.

[3] = molecular target: α1-adrenoceptor; test: α1-adrenoceptor binding assay; conditions: 3H-Prazosin binding, rat whole brain membranes
Experimental: Test 5 [α1-adrenoceptor binding assay]
Male Wistar rats (200-250 g) were killed by decapitation and the brain was placed in ice-cold buffer (0.25 M sucrose, 5 mM Tris/HCl, 1 mM MgCl2, pH 7.5).
Whole brain was homogenized in 10-20 volume (w/v) of ice-cold buffer for 20 strokes using a motor-drived Teflon-glass homogenizer. The homogenate was centrifuged at 1,000 g for 10 min at 4° C., and the pellet was discarded. The supernatant was centrifuged at 30,000 g for 20 min at 4° C. The pellet obtained was washed by
resuspension in 20 ml ice-cold 50 mM Tris/HCl, 10 mM MgCl2 buffer (pH 7.5) and recentrifuged at 30,000 g for 20 min at 4° C. The final pellet was resuspended in 15 volumes of original wet weight of 50 mM Tris/HCl, 10 mM MgCl2 buffer (pH 7.5) for use in the assays.
For ^3 H-Prazosin binding to rat brain, membrane suspensions prepared from rat whole brain (0.3-0.4 mg protein) were incubated by constant shaking for 20 min at 30° C. with ^3 H-Prazosin ([…]) and increasing concentrations of test compounds (10^-6 -10^-9 M) in a total volume of 550 μl of 50 mM Tris/HCl, 10 mM MgCl2 buffer containing 0.1 mg/ml bovine serum albumin (pH 7.5). […] These filter disks were counted by liquid scintillation counter with an efficacy of 40%. […] The concentration of the test compound inhibiting 50% of the specific binding of ^3 H-Prazosin was calculated by log profit analysis of the binding data.

[4] = molecular target: T1, DA2 receptor (Rattus norvegicus, UniProt P61169); test: Dopamine receptor (DA2 receptor) binding assay
T1 construct: the striatum were dissected from their brains; from tissue; host or cells: rat striatum (male rats, 150-300 g), washed homogenate pellet
T1 sequence (P61169 whole entry): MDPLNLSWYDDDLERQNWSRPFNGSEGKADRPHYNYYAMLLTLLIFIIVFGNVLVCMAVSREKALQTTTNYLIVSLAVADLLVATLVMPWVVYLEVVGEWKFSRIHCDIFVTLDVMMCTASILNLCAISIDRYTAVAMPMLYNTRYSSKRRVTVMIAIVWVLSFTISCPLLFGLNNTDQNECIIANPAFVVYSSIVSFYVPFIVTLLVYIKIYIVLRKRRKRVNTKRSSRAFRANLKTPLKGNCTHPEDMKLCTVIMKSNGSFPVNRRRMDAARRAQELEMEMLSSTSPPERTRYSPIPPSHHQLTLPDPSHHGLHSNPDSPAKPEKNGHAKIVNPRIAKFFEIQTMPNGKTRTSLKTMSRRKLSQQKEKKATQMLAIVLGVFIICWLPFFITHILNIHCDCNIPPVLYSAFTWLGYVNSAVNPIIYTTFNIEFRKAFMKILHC
Experimental: Test 1 Dopamine receptor (DA2 receptor) binding assay
The affinity for DA2 receptor of a Test Compound was determined following in vitro receptor binding assays.
Male rats weighing 150-300g were decapitated and the striatum were dissected from their brains. The tissue was homogenized in 30 volumes of buffer which consisted of 50 mM Tris-HCl (pH 7.4 at 25° C.), 120 mM sodium chloride, 5 mM potassium chloride, 1 mM calcium chloride, 1 mM magnesium chloride, 10 μM pargirine, and 0.1% ascorbic acid. The homogenate was centrifuged at 50,000 g for 15 minutes. The pellet was resuspended in 30 volumes of the buffer. The tissue suspension was centrifuged and suspended again in the same way.
Incubation tubes received 100 μl of [phenyl-4-^3 H]spiperone, 100 μl of the Test Compound and 0.8 ml of tissue suspension during binding assays. The concentration of [phenyl-4-^3 H]spiperone was 0.2 nM. The final tissue concentration of rat striatum was 160 μg/ml. […] The filters were counted by liquid scintillation counter.
Specific binding of the [^3 H]spiperone was determined in the presence of 1 μM butaclamol. The IC50 value of the Test Compound was calculated from the data of [^3 H]spiperone binding in the present of 10^-9 M, 10^-8 M, 10^-7 M and 10^-6 M Test Compound.

[5] = Solubility of the test compounds in various solvents; type: physicochemical; conditions: for Solubility: ambient temperature
Experimental: The solubility of the test compounds in various solvents was measured at ambient temperature.

[6] = Stability (storage at accelerated conditions); type: physicochemical; conditions: for Residual Amount (%): 12960 min
Experimental: Test Compounds were stored for 9 days at accelerated conditions as shown in the following table, and the residual amounts of them were determined by a High Performance Liquid Chromatography (HPLC).

[7] = Effect on Plasma Triglyceride Level; type: in vivo, Male SD rats; conditions: dose 10 mg/kg/day, orally once a day for two weeks; STZ-induced diabetic rats
Experimental: Test 7 [Effect on Plasma Triglyceride Level]
Male SD rats weighing 180-230 g were made diabetic by intravenous administration of streptozotocin (STZ) at a dose of 60 mg/kg dissolved in 2 mM citrate buffer (pH 4.5). One week later, the rats were grouped by plasma triglyceride level and test compound were administered orally once a day for two weeks. Then blood samples were collected from orbital vein, and plasma triglyceride levels were measured enzymatically (Triglyceride G-Test WAKO). Control group received 0.5% methyl cellulose.

[8] = Effect on Renal Blood Flow; type: in vivo, Male beagle dogs; conditions: 10 μg/kg i.v., anesthetized dogs
Experimental: Test 6 Effect on Renal Blood Flow
Male beagle dogs, weighing 7-12 kg were anesthetized with sodium pentobarbital (30 mg/kg i.v.). The left renal artery was exposed retroperitoneally through a flank incision, and an electromagnetic flowmeter probe were placed around the left renal artery to measure renal blood flow.

[9] = 70° C./75% Relative Humidity, 9 days, HPLC

Compound: O=c1[nH]c2cc(NO)ccc2c(=O)n1CCCCN1CC=C(c2ccccc2)CC1 [Compound A, 7-hydroxyamino-3-[4-(4-phenyl-1,2,3,6-tetrahydropyridin-1-yl)butyl]-1,2,3,4-tetrahydroquinazoline-2,4-dione]
- Inhibition (%) [1]: 33%
- Maximum decrease of blood pressure (%) [2]: 34%
- IC50 [3]: 0.02 µM
- IC50 [4]: 0.0081 µM

Compound: CS(=O)(=O)Nc1ccc2[nH]c(=O)n(CCCCN3CC=C(c4ccccc4)CC3)c(=O)c2c1 [Compound B, 3-[4-(4-phenyl-1,2,3,6-tetrahydropyridin-1-yl)butyl]-6-methylsulfonylamino-1,2,3,4-tetrahydroquinazoline-2,4-dione]
- IC50 [3]: 0.038 µM

Compound: CCS(=O)(=O)Nc1ccc2[nH]c(=O)n(CCCCN3CC=C(c4ccccc4)CC3)c(=O)c2c1 [Compound C, 6-Ethylsulfonylamino-3-[4-(4-phenyl-1,2,3,6-tetrahydropyridin-1-yl)butyl]-1,2,3,4-tetrahydroquinazoline-2,4-dione]
- Solubility ([5]; isotonic saline): 9.41 µg/mL (≈ 19.5 µM)
- Solubility ([5]; water): 7.4 µg/mL (≈ 15.3 µM)
- remaining at 216 h ([6]; 70° C., 9 days, HPLC, read-out: Residual Amount (%)): 83.4%
- Residual Amount (%) [6, 9]: 69.6%
- plasma triglyceride [7]: 138.2 ± 47.0 mg/dL
- RBF (% change) [8]: +29 % change

Compound: CCS(=O)(=O)Nc1ccc2[nH]c(=O)n(CCCCN3CC=C(c4ccccc4)CC3)c(=O)c2c1 [Compound D, 6-ethylsulfonylamino-3-[4-(4-phenyl-1,2,3,6=tetrahydropyridin-1-yl)butyl]-1,2,3,4=tetrahydroquinazoline-2,4-dione sulfate]
- Solubility ([5]; isotonic saline): 183 µg/mL
- solubility (in words) ([5]; versus the product of Example 32): better solubility
- Solubility ([5]; water): 733 µg/mL
- stability (in words) [6]: better solubility and stability
- Residual Amount (%) ([6]; 70° C., 9 days, HPLC): 98.2%
- Residual Amount (%) [6, 9]: 99.7%
